Reference: patent publication US12077503B2, “Substituted cyclic amides and their use as herbicides” (FMC CORPORATION, priority 2015, dated 2024)

Experiments:
Type in all cases: in vivo
[1] = test system: Galium (catchweed bedstraw, Galium aparine); assay: Test A postemergence; details: Galium, post-emergence, 240 h, postemergence; for pest or weed control at 125 g/ha: 125 g ai/ha, visual injury vs untreated controls after approx. 10 d, 0 = no effect, 100 = complete control, read-out: Galium plant response rating (0 to 100 scale); for pest or weed control at 500 g/ha: 500 g ai/ha, 0 to 100 scale, 0 is no effect, 100 is complete control, read-out: Galium plant response rating
Method in brief: (§1)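 Visual injury scores from 0, no effect, to 100, complete control, were assigned versus untreated controls roughly 10 d after treatment in the greenhouse. Test chemicals, formulated with surfactant in a non-phytotoxic solvent, were applied to planted seeds as a preemergence soil spray or postemergence to one- to two-leaf plants 2 to 10 cm tall, in loam–sand soil.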

Kochia (Kochia scoparia) = assay: Test A postemergence; details: Bassia scoparia, post-emergence, 240 h, postemergence; for pest or weed control at 125 g/ha: 125 g ai/ha, visual injury vs untreated controls after approx. 10 d, 0 = no effect, 100 = complete control, read-out: Kochia plant response rating (0 to 100 scale); for pest or weed control at 500 g/ha: 500 g ai/ha, 0 to 100 scale, 0 is no effect, 100 is complete control, read-out: Kochia plant response rating
Method in brief: as §1

[2] = test system: blackgrass (Alopecurus myosuroides); assay: Test A postemergence; details: Alopecurus myosuroides, post-emergence, 240 h, postemergence; for pest or weed control at 125 g/ha: 125 g ai/ha, visual injury vs untreated controls after approx. 10 d, 0 = no effect, 100 = complete control, read-out: Blackgrass plant response rating (0 to 100 scale); for pest or weed control at 500 g/ha: 500 g ai/ha, 0 to 100 scale, 0 is no effect, 100 is complete control, read-out: Blackgrass plant response rating
Method in brief: as §1

corn (Zea mays) = assay: Test A postemergence; details: Zea mays, post-emergence, 240 h, postemergence; for plant injury at 125 g/ha: 125 g ai/ha, visual injury vs untreated controls after approx. 10 d, 0 = no effect, 100 = complete control, read-out: Corn plant response rating (0 to 100 scale); for plant injury at 500 g/ha: 500 g ai/ha, 0 to 100 scale, 0 is no effect, 100 is complete control, read-out: Corn plant response rating
Method in brief: as §1

[3] = test system: giant foxtail (Setaria faberii); assay: Test A postemergence; details: Setaria faberi, post-emergence, 240 h, postemergence; for pest or weed control at 125 g/ha: 125 g ai/ha, visual injury vs untreated controls after approx. 10 d, 0 = no effect, 100 = complete control, read-out: Foxtail, Giant plant response rating (0 to 100 scale); for pest or weed control at 500 g/ha: 500 g ai/ha, 0 to 100 scale, 0 is no effect, 100 is complete control, read-out: Foxtail, Giant plant response rating
Method in brief: as §1

[4] = test system: pigweed (Amaranthus retroflexus); assay: Test A postemergence; details: Amaranthus retroflexus, post-emergence, 240 h, postemergence; for pest or weed control at 125 g/ha: 125 g ai/ha, visual injury vs untreated controls after approx. 10 d, 0 = no effect, 100 = complete control, read-out: Pigweed plant response rating (0 to 100 scale); for pest or weed control at 500 g/ha: 500 g ai/ha, 0 to 100 scale, 0 is no effect, 100 is complete control, read-out: Pigweed plant response rating
Method in brief: as §1

[5] = test system: ragweed (common ragweed, Ambrosia elatior); assay: Test A postemergence; details: Ambrosia artemisiifolia, post-emergence, 240 h, postemergence; for pest or weed control at 125 g/ha: 125 g ai/ha, visual injury vs untreated controls after approx. 10 d, 0 = no effect, 100 = complete control, read-out: Ragweed plant response rating (0 to 100 scale); for pest or weed control at 500 g/ha: 500 g ai/ha, 0 to 100 scale, 0 is no effect, 100 is complete control, read-out: Ragweed plant response rating
Method in brief: as §1

[6] = test system: ryegrass, Italian (Italian ryegrass, Lolium multiflorum); assay: Test A postemergence; details: Lolium multiflorum, post-emergence, 240 h, postemergence; for pest or weed control at 125 g/ha: 125 g ai/ha, visual injury vs untreated controls after approx. 10 d, 0 = no effect, 100 = complete control, read-out: Ryegrass, Italian plant response rating (0 to 100 scale); for pest or weed control at 500 g/ha: 500 g ai/ha, 0 to 100 scale, 0 is no effect, 100 is complete control, read-out: Ryegrass, Italian plant response rating
Method in brief: as §1

[7] = test system: wheat (Triticum aestivum); assay: Test A postemergence; details: Triticum aestivum, post-emergence, 240 h, postemergence; for plant injury at 125 g/ha: 125 g ai/ha, visual injury vs untreated controls after approx. 10 d, 0 = no effect, 100 = complete control, read-out: Wheat plant response rating (0 to 100 scale); for plant injury at 500 g/ha: 500 g ai/ha, 0 to 100 scale, 0 is no effect, 100 is complete control, read-out: Wheat plant response rating
Method in brief: as §1

[8] = test system: barnyardgrass (Echinochloa crus-galli); assay: Test B flooded paddy test; details: Echinochloa crus-galli, 250 g ai/ha, Flood; 0 to 100 scale where 0 is no effect and 100 is complete control; read-out: Barnyardgrass plant response rating
Method in brief: (§2)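 Compound goes directly into floodwater once pots are flooded 3 cm above soil, targeting plants at two leaves; the water depth is then held for the test duration. Plants sit 13–15 d in a greenhouse and are rated visually, 100 denoting complete control.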

[9] = test system: ducksalad (Heteranthera limosa); assay: Test B flooded paddy test; details: Heteranthera limosa, 250 g ai/ha, Flood; 0 to 100 scale where 0 is no effect and 100 is complete control; read-out: Ducksalad plant response rating
Method in brief: as §2

rice (Oryra sativa) = assay: Test B flooded paddy test; details: Oryza sativa, 250 g ai/ha, Flood; 0 to 100 scale where 0 is no effect and 100 is complete control; read-out: Rice plant response rating
Method in brief: as §2

[10] = test system: sedge, umbrella (small-flower umbrella sedge, Cyperus difformis); assay: Test B flooded paddy test; details: Cyperus difformis, 250 g ai/ha, Flood; 0 to 100 scale where 0 is no effect and 100 is complete control; read-out: Sedge, Umbrella plant response rating
Method in brief: as §2

SMILES | pest or weed control at 125 g/ha [1] | pest or weed control at 500 g/ha [1] | pest or weed control at 125 g/ha (Kochia (Kochia scoparia)) | pest or weed control at 500 g/ha (Kochia (Kochia scoparia)) | pest or weed control at 125 g/ha [2] | pest or weed control at 500 g/ha [2] | plant injury at 125 g/ha (corn (Zea mays)) | plant injury at 500 g/ha (corn (Zea mays)) | pest or weed control at 125 g/ha [3] | pest or weed control at 500 g/ha [3] | pest or weed control at 125 g/ha [4] | pest or weed control at 500 g/ha [4] | pest or weed control at 125 g/ha [5] | pest or weed control at 500 g/ha [5] | pest or weed control at 125 g/ha [6] | pest or weed control at 500 g/ha [6] | plant injury at 125 g/ha [7] | plant injury at 500 g/ha [7] | pest or weed control at 250 g/ha [8] | pest or weed control at 250 g/ha [9] | further results
COc1cc([C@H]2CN(C)C(=O)[C@@H]2C(=O)Nc2ccccc2F)cc(OC)c1OC [Compound 1217] | 0% | 0% | 0% | 0% | 0% | 0% | 0% | 0% | 90% | 90% | 0% | 0% | 0% | 0% | 0% | 0% | 0% | 0% | 0% | 40% | pest or weed control at 250 g/ha (rice (Oryra sativa)): 25%; pest or weed control at 250 g/ha [10]: 0%
CN1C[C@H](c2ccc3c(c2)OC(F)(F)O3)[C@@H](C(=O)Nc2ccc(F)c(F)c2F)C1=O [Compound 1204] | 50% | 60% | 80% | 80% | 50% | 70% | 70% | 80% | 90% | 90% | 70% | 80% | 20% | 60% | 70% | 80% | 60% | 70% | 70% | 100% | pest or weed control at 250 g/ha (rice (Oryra sativa)): 0%; pest or weed control at 250 g/ha [10]: 0%
COc1ccc([C@H]2CN(C)C(=O)[C@@H]2C(=O)Nc2ccccc2F)c(OC)c1 [Compound 1215] | 0% | 0% | 0% | 30% | 0% | 0% | 0% | 0% | 70% | 90% | 0% | 0% | 0% | 0% | 0% | 0% | 0% | 0% | 0% | 70% | pest or weed control at 250 g/ha (rice (Oryra sativa)): 0%; pest or weed control at 250 g/ha [10]: 0%
